Test results taken from US5668121A, “Glutamate (NMDA) receptor antagonists” (Warner-Lambert Company, priority 1995, dated 1997).

Assays:
[1] = molecular target: glutamate recognition site of the NMDA receptor; assay: [3H]-CGP 39653 receptor binding assay, synaptosomal membrane from rat cortex; conditions: read-out: affinity in [3H]-CGP binding assay (ability to displace 50% of the radioligand)
Method: (§1) Receptor binding experiments were performed using synaptosomal membrane from rat cortex according to means described in the literature.
(§2) Moreover, Bigge, et al., J. Med. Chem., 32 1580 (1989) discloses a [^3 H]-CCP binding assay result of 3.3 μM for the unsubstituted 5-(phosphonomethyl)-phenylalanine compound.

[2] = molecular target: glutamate recognition site of the NMDA receptor; assay: [3H]-glutamate receptor binding assay, synaptosomal membrane from rat cortex; conditions: for IC50: rat cortex synaptosomal membrane, read-out: affinity in [3H]-glutamate binding assay (ability to displace 50% of the radioligand)
Method: as §1, §2

[3] = molecular target: T1, neutral amino acid transporter (Cricetulus griseus, UniProt G3GRU9); assay: Competition with [3H]-L-phenylalanine for uptake into CHO cells; type: cell-based, Chinese hamster; conditions: 20 μM [3H]-L-phenylalanine
T1 construct: uptake into Chinese hamster ovary (CHO) cells; endogenous in cells; host or cells: Chinese hamster ovary (CHO) cells
T1 sequence (G3GRU9 1-506): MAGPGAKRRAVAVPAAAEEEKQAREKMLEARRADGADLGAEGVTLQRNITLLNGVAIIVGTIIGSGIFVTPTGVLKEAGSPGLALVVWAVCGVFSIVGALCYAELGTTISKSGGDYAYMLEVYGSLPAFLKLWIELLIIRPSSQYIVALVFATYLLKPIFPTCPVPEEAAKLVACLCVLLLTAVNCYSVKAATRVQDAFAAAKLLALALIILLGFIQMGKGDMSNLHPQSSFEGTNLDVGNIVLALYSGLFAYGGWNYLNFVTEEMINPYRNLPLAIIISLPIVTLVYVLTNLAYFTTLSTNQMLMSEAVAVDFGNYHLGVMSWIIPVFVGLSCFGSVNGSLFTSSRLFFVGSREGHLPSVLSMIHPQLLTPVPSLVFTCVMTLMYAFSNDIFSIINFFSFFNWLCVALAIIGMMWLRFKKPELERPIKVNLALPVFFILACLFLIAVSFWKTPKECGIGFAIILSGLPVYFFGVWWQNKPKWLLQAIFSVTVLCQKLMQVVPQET
T1 sequence (A0A9J7CH39 1-533 partner): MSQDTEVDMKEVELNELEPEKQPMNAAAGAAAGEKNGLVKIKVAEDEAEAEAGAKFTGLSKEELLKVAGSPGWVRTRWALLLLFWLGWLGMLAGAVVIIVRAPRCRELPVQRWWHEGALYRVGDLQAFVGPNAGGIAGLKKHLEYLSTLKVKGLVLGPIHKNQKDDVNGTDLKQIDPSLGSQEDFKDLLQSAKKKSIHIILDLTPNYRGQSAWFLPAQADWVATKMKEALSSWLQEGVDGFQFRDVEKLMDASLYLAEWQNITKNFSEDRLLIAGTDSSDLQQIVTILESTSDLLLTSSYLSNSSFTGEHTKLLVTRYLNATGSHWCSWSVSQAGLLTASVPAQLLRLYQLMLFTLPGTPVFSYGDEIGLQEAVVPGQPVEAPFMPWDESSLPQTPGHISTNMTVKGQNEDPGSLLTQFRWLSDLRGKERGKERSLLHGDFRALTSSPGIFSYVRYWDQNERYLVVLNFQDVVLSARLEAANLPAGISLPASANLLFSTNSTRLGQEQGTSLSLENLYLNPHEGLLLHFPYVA
Method: Transport capacity was determined by measuring the ability of these compounds to compete with L-phenylalanine for uptake into Chinese hamster ovary (CHO) cells. All transport studies were performed in the presence of 20 μM [^3 H]-L-phenylalanine and a varying amount of the inventive compound. The capacity of the compound for transport was evaluated by its ability to reduce the transport of phenylalanine. The compounds were determined to be either substrates or not substrates of the neutral amino acid transporter,and have KM values of between 20 and 500 μM.

[4] = tested on: electroshock induced convulsions; assay: Electroshock induced convulsions in the mouse; type: in vivo
NMDA receptor = conditions: read-out: [3H]-CCP binding assay result; cited from earlier work

IC50 [1] [nM] | IC50 [2] [nM] | SMILES | inhibition of phenylalanine transport [3] | improvement in potency, as measured by binding assays, over prior art NMDA receptor antagonists ([2]; [3H]-glutamate and [3H]-CGP binding, comparison with prior art compounds) | ED50 ([4]; iv, 50 mA 200 ms corneal shock, read-out: ED50, inhibition of hindlimb extension) [mg/kg] | anticonvulsant activity after oral administration ([4]; oral) | IC50 (NMDA receptor) [nM]
98 | 115 | NC(Cc1cc(CP(=O)(O)O)cc(-c2ccccc2)c1)C(=O)O (single isomer, unassigned) [(+)-α-amino-3-(5-phosphonomethyl-[1,1'-biphenyl]-3-yl)propanoic acid, reference compound] |  |  |  |  | 
8 | 4 | N[C@@H](Cc1cc(CP(=O)(O)O)cc(-c2cccc3ccccc23)c1)C(=O)O [3-(1-Naphthalenyl)-5-(phosphonomethyl)-L-phenylalanine] | inhibited phenylalanine transport in CHO cells | at least a ten to thirty fold, and up to a several hundred fold improvement in potency | < 1 | demonstrates activity after oral administration with an extended duration of action | 
 |  | N[C@@H](Cc1cccc(CP(=O)(O)O)c1)C(=O)O [5-(phosphonomethyl)-phenylalanine] |  |  |  |  | 3300
